Measured values as given in article PMC10299677, “Fluorinated Benzofuran and Dihydrobenzofuran as Anti-Inflammatory and Potential Anticancer Agents” (International Journal of Molecular Sciences, 2023).
“Also recorded” adds a separate entry of the source.

Assays:
[1] = biological target: T1, COX-1 (Homo sapiens, UniProt P23219); experiment: COX-1 activity: PGE2 from exogenous arachidonic acid in HEK-293 cells overexpressing COX-1; assay type: cell-based; conditions: for effect on COX-1 activity: 10 µM for compounds 1, 7, 9, 50 µM for others, 10 µM arachidonic acid; for IC50: HEK-293 overexpressing COX-1, compounds 30 min prior to 10 µM arachidonic acid
T1 construct: expressed in transfected cells
T1 sequence (P23219 24-599): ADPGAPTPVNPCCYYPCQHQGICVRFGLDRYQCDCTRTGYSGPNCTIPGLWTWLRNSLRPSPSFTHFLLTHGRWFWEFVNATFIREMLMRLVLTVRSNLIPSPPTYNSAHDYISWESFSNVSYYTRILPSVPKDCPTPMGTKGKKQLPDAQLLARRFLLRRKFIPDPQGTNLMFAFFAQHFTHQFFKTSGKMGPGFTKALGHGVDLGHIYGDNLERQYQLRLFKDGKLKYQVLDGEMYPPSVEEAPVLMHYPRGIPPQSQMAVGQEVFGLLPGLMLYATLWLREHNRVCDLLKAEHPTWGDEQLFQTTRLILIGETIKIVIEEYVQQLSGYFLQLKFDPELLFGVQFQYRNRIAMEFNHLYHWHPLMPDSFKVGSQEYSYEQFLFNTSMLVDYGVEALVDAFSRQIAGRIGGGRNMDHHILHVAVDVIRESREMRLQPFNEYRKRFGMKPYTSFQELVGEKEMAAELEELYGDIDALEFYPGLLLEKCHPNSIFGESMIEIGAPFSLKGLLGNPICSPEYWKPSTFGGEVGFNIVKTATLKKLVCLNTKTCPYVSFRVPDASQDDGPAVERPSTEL
Method: Figure 3 Effects of the fluorinated benzofuran and dihydrobenzofuran on COX-1 and COX-2 activities. (A) Illustration for COX-1 activity assay. HEK-293 cells stably overexpressing COX-1 are treated with the nine derivatives of benzofuran at concentrations of only 10 µM for compounds 1, 7, and 9, and 50 µM for the other compounds, 30 min prior to the addition of 10 µM arachidonic acid (AA). […] (B) COX-1 activity. […] Levels of PGE2 were very low in the absence of arachidonic acid (0.04 ± 0.01 ng/mL) and 104.3 ± 16.7 ng/mL for 10 µM AA. (C) Illustration for COX-2 activity determination. Macrophages are treated with 10 µM of aspirin (ASA) for 30 min to block basal COX activity, washed, and treated with 10 ng/mL LPS for 24 h to induce COX-2. Cells are then washed and incubated 30 min with 50 µM of the different compounds prior to the addition of 10 µM of AA. The produced PGE2 mainly reflects COX-2 activity. (D) COX-2 activity. Percentage of LPS-treated cells was calculated, and data are represented as mean ± SEM (n = 4); * p < 0.05 versus AA for COX-1 activity, and versus LPS + ASA + AA for COX-2 activity (one-way ANOVA followed by Dunnett’s test). […] Levels of PGE2 were very low in the absence of arachidonic acid (0.06 ± 0.01 ng/mL) and 71.7 ± 5.7 ng/mL for 10 µM AA.
COX-1 and COX-2 activities were performed as described previously in human embryonic kidney cell line (HEK-293) stably overexpressing COX-1 [19] and in macrophages, respectively. […] For both COX-1 and COX-2 assays, the benzofuran compounds were then added to the cells for 30 min prior to the incubation with 10 µM arachidonic acid for another 30 min. PGE2 was then measured using an enzyme immunoassay, as described previously.
(§1) IL-6, CCL2, nitrite (for NO), and PGE2 concentrations from 3–5 independent experiments were expressed as percentage of LPS alone and as mean ± SEM. COX activity was determined as percentage of PGE2 produced from exogenous arachidonic acid. Curve fitting and calculation of IC50 values were performed using GraphPad Prism (version 9.5.1 Software, La Jolla, CA, USA).

[2] = system: PGE2; experiment: PGE2 release in LPS-treated macrophages (BMDM); assay type: cell-based, C57BL/6J mice; conditions: for effect on PGE2 production in response to LPS: 10 µM for compounds 1, 7, 9, 50 µM for others; for effect on PGE2 production in response to LPS / blocking of PGE2 formation in response to LPS: 10 ng/mL LPS 24 h; for IC50: compounds 30 min prior to 10 ng/mL LPS for 24 h; for blocking of PGE2 formation in response to LPS: 50 µM
Method: (§2) C57BL/6J (10–15 weeks old) male mice were obtained from the animal care facility at the American University of Beirut. All animal procedures were performed following the recommendations of the IACUC (Institutional Animal Care and Use Committee approval 16-09-M379). BMDMs were prepared and characterized as described previously by our group. BMDMs were isolated from C57BL/6J mice by flushing the femur and tibia with RPMI-1640 culture media (Sigma-Aldrich R7388), and cells were collected and centrifuged at 300× g for 5 min. The supernatant was discarded, and the pellet was resuspended in 2 mL red blood lysis 10% (Sigma-Aldrich R7767) medium in PBS and incubated for 5 min at room temperature. After diluting the suspension of cells with 5 mL of RPMI containing 10% FBS and 1% penicillin–streptomycin, cells were centrifuged at 300× g for 5 min, and the cell pellet was resuspended in RPMI media containing 10% FBS supplemented with 15% L929-conditioned medium containing macrophage-colony stimulating factor (M-CSF1) and plated on […]. Cells were allowed to proliferate and differentiate for 5–6 days. Cells were harvested, washed, and allowed to adhere overnight in RPMI containing 10% FBS for treatment. Cells were previously characterized by flow cytometry as macrophages using this method. […] Cells were plated at 0.8 × 10^6 cells per 3.8 cm^2 well [27].
(§3) BMDMs were then treated with different concentrations of the benzofuran and dihydrobenzofuran derivatives for 30 min prior to the addition of 10 ng/mL LPS for 24 h. […] The supernatants were assessed for IL-6, PGE2, CCL2, and nitrite, the stable derivative of NO, as described previously.
as §1

[3] = system: NF-κB or Iκ-Bα phosphorylation; experiment: NF-κB and IκBα phosphorylation in LPS-treated macrophages (Western blot); assay type: cell-based, C57BL/6J mice; conditions: compounds 30 min prior to 1 h LPS
Method: Macrophages were incubated with the compounds for 30 min prior to the addition of 10 ng/mL LPS for 24 h. Protein levels for COX-2 and NOS2 were detected in LPS-stimulated macrophages. As previously described, 10 µg of total protein was assessed. The primary antibodies were developed and characterized as previously described: for COX-2, mouse monoclonal antibody anti-COX-2 (clone COX-214, 1/5000); for NOS2, rabbit polyclonal antibody anti-NOS2 (dilution1/2000 [33]). Antibodies anti-phospho-NF-κB (3033S), phospho-IκBα (9246S), and total IκBα (4814S) were from Cell Signaling Technologies (Danvers, MA, USA). Total NF-κB C-20 (sc-372) was from Santa Cruz Biotechnologies (Dallas, TX, USA), and mouse β-actin (dilution 1/10,000) (Sigma-Aldrich, A5441). Clarity™ western ECL substrate (Bio-Rad Laboratories 10-5061) was used according to the manufacturer’s instructions to reveal positive bands visualized using Bio-Rad ChemiDoc. For Bcl-2 and cleaved PARP-1, HCT116 cells were plated in 6-well plates (200,000 cells per well) for 24 h, and treated with compounds 1 and 2 at 10, 25, and 50 µM for 72 h. Supernatants and cells were collected and lysed using RIPA lysis buffer containing inhibitors of protease. Western blot of Bcl-2 and cleaved PARP-1 was performed using 25 µg of total protein with a rabbit polyclonal antibody anti-Bcl-2 (1/500) (Santa Cruz Biotechnology, sc-492), rabbit polyclonal antibody anti-PARP-1 (1/1000) (Santa Cruz Biotechnology, sc-7150), and mouse anti-β-actin (dilution 1/10,000) (Sigma-Aldrich, A5441).
F i g u re S4: Phosphorylation of NF-κB and IκBα kinetics in LPS-treated macrophages. (A) Kinetics of the phosphorylation of NF-κB and IκBα in macrophages. Cells were treated with 10 ng/mL LPS for different time points and protein expression was assessed by western blot. We determine that 1 hour incubation with LPS is efficient for the phosphorylation of NF-κB and IκBα phosphorylation; (B) Macrophages were treated with the tested compounds for 30 minutes prior to 1 hour-treatment with LPS. β-actin was used as a loading control and densitometric analysis was done ImageJ Software (NIH, MA). Data are ex pressed as fold of LPS-treated macrophages and represented as mean ± S.E.M. of 3 different experiments, *p<0.05 versus LPS (One-w a y Anova followed by the Dunnett’s test). […]

[4] = system: CCL2; experiment: CCL2 release in LPS-treated macrophages (BMDM); assay type: cell-based, C57BL/6J mice; conditions: for effect on CCL2 secretion: 10 µM for compound 1, 50 µM for others, LPS 24 h; for IC50: Mus musculus, Macrophage, compounds 30 min prior to 10 ng/mL LPS for 24 h
Method: as §2, §3, §1

SMILES: C=C(C)c1ccc2oc(CC(=O)O)c(F)c2c1 [Compound 6]
- effect on COX-1 activity [1]: significantly reduced; also recorded: direct inhibitory effect
- IC50 [1]: 5 µM
- effect on PGE2 production in response to LPS [2]: very potent inhibitors
- IC50 ([2]; Mus musculus, Macrophage): 1.12 µM

SMILES: O=C(O)/C=C1\Oc2ccc(Br)cc2C1(F)F [Compound 3]
- effect on COX-1 activity [1]: significantly reduced
- IC50 [1]: 7.9 µM
- effect on NF-κB or Iκ-Bα phosphorylation induced by LPS [3]: did not modify
- effect on CCL2 secretion [4]: significant decreases
- IC50 [4]: 1.5 µM
- blocking of PGE2 formation in response to LPS [2]: more than 50%
- IC50 ([2]; Mus musculus, Macrophage): 1.48 µM

SMILES: COC(=O)/C=C1/Oc2ccc(Br)cc2C1(F)F [Compound 1]
- effect on NF-κB or Iκ-Bα phosphorylation induced by LPS [3]: did not modify
- effect on CCL2 secretion [4]: moderate effect
- IC50 [4]: 8 µM

SMILES: COC(=O)CC1(O)Oc2ccc(Br)cc2C1(F)F (centres unmarked) [Compound 8]
- effect on COX-1 activity [1]: without any effect
- effect on NF-κB or Iκ-Bα phosphorylation induced by LPS [3]: did not modify
- effect on CCL2 secretion [4]: significant decreases
- IC50 [4]: 19.3 µM
- effect on PGE2 production in response to LPS [2]: inhibited partial; also recorded: partial inhibition
- IC50 ([2]; Mus musculus, Macrophage): 20.5 µM

SMILES: O=C(O)Cc1oc2ccc(-c3ccccc3)cc2c1F [Compound 5]
- effect on COX-1 activity [1]: direct inhibitory effect
- effect on PGE2 production in response to LPS [2]: very potent inhibitors
- IC50 ([2]; Mus musculus, Macrophage): 1.92 µM

SMILES: O=C(O)/C=C1/Oc2ccc(Br)cc2C1(F)F [Compound 2]
- effect on NF-κB or Iκ-Bα phosphorylation induced by LPS [3]: did not modify
- effect on CCL2 secretion [4]: significant decreases
- IC50 [4]: 1.52 µM
- blocking of PGE2 formation in response to LPS [2]: more than 50%
- IC50 ([2]; Mus musculus, Macrophage): 1.92 µM
- IC50 [2]: 1.91 µM
